Experimental data reported in paper PMC12301332, “Biased antagonism of a series of bicyclic CXCR2 intracellular allosteric modulators” (Frontiers in Pharmacology, 2025).

Assays:
CXCR2 [1] = biological target: T1, CXCR2 (Homo sapiens, UniProt P25025); test: NanoBRET-based G protein activation inhibition assay (REGA-SIGN Gαi1 dissociation) in HEK293A.CXCR2 cells; assay type: cell-based; conditions: n = 3; for IC50: mean; for Imax Gαi1 (maximum observed inhibitory effect): normalized to Imax of navarixin = 100%
T1 construct: expressed in transfected cells
T1 sequence (P25025 1-360): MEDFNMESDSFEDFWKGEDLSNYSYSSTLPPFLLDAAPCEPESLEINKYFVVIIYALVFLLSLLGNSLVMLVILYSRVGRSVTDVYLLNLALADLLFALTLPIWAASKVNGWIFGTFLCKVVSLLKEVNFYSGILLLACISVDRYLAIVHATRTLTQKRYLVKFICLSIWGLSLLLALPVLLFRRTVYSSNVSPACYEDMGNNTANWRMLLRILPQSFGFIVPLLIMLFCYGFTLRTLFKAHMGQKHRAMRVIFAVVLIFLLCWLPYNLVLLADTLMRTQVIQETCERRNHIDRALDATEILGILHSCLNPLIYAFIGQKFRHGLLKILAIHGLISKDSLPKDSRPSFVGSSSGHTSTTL
Experimental: Cells were trypsinized and resuspended at 3 × 10^5 cell/mL in the growth medium, whereafter they were incubated for 2 hours at RT. Cells were transfected in suspension using FuGENE® HD Transfection Reagent at a 3:1 reagent to DNA ratio in Opti-MEMTM I Reduced-Serum Medium, with the final DNA concentration of 1 μg/μL. The transfection mixture was incubated for 10 min at RT before adding it to the cell suspension. Transfected cells were seeded at 3.0 × 10^4 cells/well in a white, clear, flat-bottom 96-well plate coated with 100 μg/mL poly-D-lysin ([…], Sigma Aldrich) and incubated for 48 h at 37°C and 5% CO2. […] (2023)]. Following the 48-h incubation period, cells were washed with the assay buffer. Compounds were serially diluted in 1:500 Nano-Glo® Vivazine^TM working solution (#N2581, Promega), and 90 μL of compound/Vivazine mix was added, followed by incubation for 45 min at 37°C and 5% CO2. Plates were transferred to the FLIPR Penta system (Molecular Devices) at 37°C, and all steps onward are automated and performed by the FLIPR Penta system. After a 10-min equilibration period, the baseline BRET signal was determined by five consecutive reads followed by automatic administration of 10 μL of 10× ligand (Table 1) to the cell plate. Changes in the BRET signal was measured for 10 min, with each read spaced by 2.5 s. […] BRET ratios were extracted from ScreenWorks software (Molecular Devices) and represent the ratio between the acceptor emission of […]2 or mNG (G protein or β-arrestin recruitment, respectively) and NLuc donor emission. The basal BRET ratio was defined as the average BRET ratio of the five consecutive readings preceding ligand addition. Changes in BRET values post ligand administration (ΔBRET) were calculated for each well as a percentage difference to the previously defined basal BRET ratio. Average ΔBRET values were baseline corrected by subtracting the average negative control BRET ratio (unstimulated condition). […] AUCs were normalized to the positive control (stimulated condition); whereafter, dose-response curves were fitted to log (inhibitor) vs response (three parameters) in GraphPad 10.2.0 (GraphPad Software). […] Calculation 1: calculation of the BRET signal. • 1. […] NC correctedΔBRET=Δ[…]. • 4. a. Neg AUC of NC correctedΔBRET=Gα activation read out. b. Pos AUC of NC correctedΔBRET=β-arrestin recruitment.

CXCR2 [2] = biological target: T1, CXCR2; test: NanoBRET β-arrestin1 recruitment inhibition assay (NanoLux) in HEK293A cells; assay type: cell-based; conditions: n = 3; for IC50: mean, read-out: IC50 βarr1; for Imax βarr1 (maximum observed inhibitory effect): normalized to Imax of navarixin = 100%
Experimental: Cells were trypsinized and resuspended at 3 × 10^5 cell/mL in the growth medium, whereafter they were incubated for 2 hours at RT. Cells were transfected in suspension using FuGENE® HD Transfection Reagent at a 3:1 reagent to DNA ratio in Opti-MEMTM I Reduced-Serum Medium, with the final DNA concentration of 1 μg/μL. The transfection mixture was incubated for 10 min at RT before adding it to the cell suspension. Transfected cells were seeded at 3.0 × 10^4 cells/well in a white, clear, flat-bottom 96-well plate coated with 100 μg/mL poly-D-lysin ([…], Sigma Aldrich) and incubated for 48 h at 37°C and 5% CO2. HEK293A cells were transiently co-transfected with plasmids encoding β-arrestin1 protein tagged with NLuc (donor) and CXCR2 protein tagged with mNeonGreen (mNG) acceptor in a 1:10 donor to acceptor ratio, as described previously ([Luís et al., 2022]). All subsequent steps are identical to those in “NanoBRET-based G protein activation inhibition assay,” which are described above. Measurements were acquired using a 440- to 480-nm donor emission filter (#0200-6179, Molecular Devices) and a 515- to 575-nm acceptor emission filter (#0200-6203, Molecular Devices) BRET ratios were extracted from ScreenWorks software (Molecular Devices) and represent the ratio between the acceptor emission of […]2 or mNG (G protein or β-arrestin recruitment, respectively) and NLuc donor emission. The basal BRET ratio was defined as the average BRET ratio of the five consecutive readings preceding ligand addition. Changes in BRET values post ligand administration (ΔBRET) were calculated for each well as a percentage difference to the previously defined basal BRET ratio. Average ΔBRET values were baseline corrected by subtracting the average negative control BRET ratio (unstimulated condition). […] AUCs were normalized to the positive control (stimulated condition); whereafter, dose-response curves were fitted to log (inhibitor) vs response (three parameters) in GraphPad 10.2.0 (GraphPad Software). […] Calculation 1: calculation of the BRET signal. • 1. […] NC correctedΔBRET=Δ[…]. • 4. a. Neg AUC of NC correctedΔBRET=Gα activation read out. b. Pos AUC of NC correctedΔBRET=β-arrestin recruitment.

CXCR2 [3] = biological target: T1, CXCR2; set-up: method as in Boon et al., 2024; conditions: agonist concentration used in NanoBRET assays; ref Boon et al., 2024; cited from earlier work
CXCR2 [4] = biological target: T1, CXCR2; set-up: method as in Boon et al., 2024; conditions: agonist concentration used in NanoBRET assays; ref Boon et al., 2024; cited from earlier work; remark: listed apart in the source

Compound	IC50 (CXCR2 [1]; CXCL1 at EC80)	Imax Gαi1 (maximum observed inhibitory effect) (CXCR2 [1]; CXCL1 at EC80)	IC50 (CXCR2 [1]; CXCL2 at EC80)	Imax Gαi1 (maximum observed inhibitory effect) (CXCR2 [1]; CXCL2 at EC80)	IC50 (CXCR2 [1]; CXCL3 at EC80)	Imax Gαi1 (maximum observed inhibitory effect) (CXCR2 [1]; CXCL3 at EC80)	IC50 (CXCR2 [1]; CXCL5 at EC80)	Imax Gαi1 (maximum observed inhibitory effect) (CXCR2 [1]; CXCL5 at EC80)	Imax Gαi1 (maximum observed inhibitory effect) (CXCR2 [1]; CXCL6 at EC80)	Imax Gαi1 (maximum observed inhibitory effect) (CXCR2 [1]; CXCL7 at EC80)	Imax Gαi1 (maximum observed inhibitory effect) (CXCR2 [1]; CXCL8 at EC80)	Imax βarr1 (maximum observed inhibitory effect) (CXCR2 [2]; CXCL1 at EC80)	Imax βarr1 (maximum observed inhibitory effect) (CXCR2 [2]; CXCL2 at EC80)	Imax βarr1 (maximum observed inhibitory effect) (CXCR2 [2]; CXCL3 at EC80)	Imax βarr1 (maximum observed inhibitory effect) (CXCR2 [2]; CXCL5 at EC80)	Imax βarr1 (maximum observed inhibitory effect) (CXCR2 [2]; CXCL6 at EC80)	Imax βarr1 (maximum observed inhibitory effect) (CXCR2 [2]; CXCL7 at EC80)	Imax βarr1 (maximum observed inhibitory effect) (CXCR2 [2]; CXCL8 at EC80)	G-protein EC80 (CXCR2 [3])	β-arrestin EC80 (CXCR2 [4])	further results
CC(CO)Nc1nc(SCc2cccc(F)c2F)nc2[nH]cnc12 (centres unmarked) [MVH-15]	> 15 µM	<50%	> 15 µM	<50%	> 15 µM	<50%	> 15 µM	<50%	<50%	<50%	<50%	100%	100%	100%	100%	100%	100%	100%			IC50 (CXCR2 [1]; CXCL6 at EC80): > 15 µM; IC50 (CXCR2 [1]; CXCL7 at EC80): > 15 µM; IC50 (CXCR2 [1]; CXCL8 at EC80): > 15 µM; IC50 (CXCR2 [2]; CXCL1 at EC80): 3.51 ± 0.83 µM; IC50 (CXCR2 [2]; CXCL2 at EC80): 2.06 ± 0.57 µM; IC50 (CXCR2 [2]; CXCL3 at EC80): 4.29 ± 1.16 µM; IC50 (CXCR2 [2]; CXCL5 at EC80): 2.1 ± 0.36 µM; IC50 (CXCR2 [2]; CXCL6 at EC80): 2.28 ± 0.57 µM; IC50 (CXCR2 [2]; CXCL7 at EC80): 0.7 ± 0.14 µM; IC50 (CXCR2 [2]; CXCL8 at EC80): 4.07 ± 1.6 µM
CC(CO)Nc1nc(SCc2cccc(F)c2F)nc2ncsc12 (centres unmarked) [MVH-22]	> 15 µM	<50%	> 15 µM	<50%	> 15 µM	<50%	> 15 µM	<50%	<50%	<50%	<50%	100%	100%	100%	100%	100%	97.6 ± 3.45%	100%			IC50 (CXCR2 [1]; CXCL6 at EC80): > 15 µM; IC50 (CXCR2 [1]; CXCL7 at EC80): > 15 µM; IC50 (CXCR2 [1]; CXCL8 at EC80): > 15 µM; IC50 (CXCR2 [2]; CXCL1 at EC80): 2.85 ± 0.68 µM; IC50 (CXCR2 [2]; CXCL2 at EC80): 1.5 ± 0.18 µM; IC50 (CXCR2 [2]; CXCL3 at EC80): 3.44 ± 0.75 µM; IC50 (CXCR2 [2]; CXCL5 at EC80): 1.96 ± 0.53 µM; IC50 (CXCR2 [2]; CXCL6 at EC80): 1.47 ± 0.2 µM; IC50 (CXCR2 [2]; CXCL7 at EC80): 0.5 ± 0.07 µM; IC50 (CXCR2 [2]; CXCL8 at EC80): 2.66 ± 0.3 µM
CC(CO)Nc1nc(SCc2cccc(F)c2F)nc2nc(N)sc12 (centres unmarked) [MVH-23]		94.85 ± 3.70%		100%		100%		94.29 ± 2.32%	100%	100%	100%	100%	100%	100%	100%	100%	100%	100%			
CCCC(C)CSc1nc(NC(C)CO)c2nn[nH]c2n1 (centres unmarked) [MVH-82]	> 15 µM	<50%	> 15 µM	<50%	> 15 µM	<50%	> 15 µM	<50%	<50%	<50%	<50%	97.29 ± 1.61%	96.96 ± 5.75%	100%	100%	100%	98.49 ± 1.76%	100%			IC50 (CXCR2 [1]; CXCL6 at EC80): > 15 µM; IC50 (CXCR2 [1]; CXCL7 at EC80): > 15 µM; IC50 (CXCR2 [1]; CXCL8 at EC80): > 15 µM; IC50 (CXCR2 [2]; CXCL1 at EC80): 2.13 ± 0.34 µM; IC50 (CXCR2 [2]; CXCL2 at EC80): 0.74 ± 0.16 µM; IC50 (CXCR2 [2]; CXCL3 at EC80): 2.53 ± 0.15 µM; IC50 (CXCR2 [2]; CXCL5 at EC80): 1.33 ± 0.47 µM; IC50 (CXCR2 [2]; CXCL6 at EC80): 0.88 ± 0.47 µM; IC50 (CXCR2 [2]; CXCL7 at EC80): 0.37 ± 0.11 µM; IC50 (CXCR2 [2]; CXCL8 at EC80): 2.32 ± 0.72 µM
CXCL1: recombinant human ELR+ chemokine, CXCR2 ligand (PeproTech)																			0.0032 µM	0.05918 µM	
CXCL2: recombinant human ELR+ chemokine, CXCR2 ligand (PeproTech)																			0.00215 µM	0.1478 µM	
CXCL3: recombinant human ELR+ chemokine, CXCR2 ligand (PeproTech)																			0.00892 µM	0.1001 µM	
CXCL5: recombinant human ELR+ chemokine, CXCR2 ligand (PeproTech)																			0.00516 µM	0.08619 µM	
CXCL6: recombinant human ELR+ chemokine, CXCR2 ligand (PeproTech)																			0.01712 µM	0.168 µM	
CXCL8: recombinant human ELR+ chemokine, CXCR2 ligand (PeproTech)																			0.00416 µM	0.01729 µM	
